From patent US20250186562A1, “TARGET SUBSTRATE PROTEIN DEGRADATION PLATFORM” (The Regents of the University of California, priority 2022, published 2025) come the findings set out here.

Non-standard residues stand in square brackets, D forms with d. Residues, ends and D or L forms follow the SMILES beside them. No end group written: not given here. ξ: configuration not given here. Tyr(3-NO2) = N[C@@H](Cc1ccc(O)c([N+](=O)[O-])c1)C(=O)O; dPhe(4-guanidino) = N=C(N)Nc1ccc(C[C@@H](N)C(=O)O)cc1; fluorescein = fluorescein attached to the C-terminus; Phe(4-guanidino) = N=C(N)Nc1ccc(C[C@H](N)C(=O)O)cc1; Tyr(3-F) = N[C@@H](Cc1ccc(O)c(F)c1)C(=O)O; Arg(Me2a) = CN(C)C(=N)NCCC[C@H](N)C(=O)O; Phe(4-NH2) = Nc1ccc(C[C@H](N)C(=O)O)cc1; His(τ-Me) = Cn1cnc(C[C@H](N)C(=O)O)c1; His(π-Me) = Cn1cncc1C[C@H](N)C(=O)O; 4Pal = N[C@@H](Cc1ccncc1)C(=O)O; 2Thi = N[C@@H](Cc1cccs1)C(=O)O; Ile(3ξ) = CCC(C)[C@H](N)C(=O)O

The target in one assay is GST-Ubr-box of Ubr1 (Homo sapiens (Human), UniProt Q8IWV7). The assay can be described thus: Competition fluorescence polarization (FP) assay, GST-Ubr-box of Ubr1. In kind it is binding. The note with it: for Ki: [GST-UBR1]=2 μM, tracer 9 nM, read-out: UBR1 Affinity Ki FP. From the text:
(§1) Fluorescence Polarization (FP) assays were used to determine binding affinity of the peptidomimetic compounds for the Ubr box (FIGS. 4A-B). FIG. 1A depicts the mechanism of action of peptidomimetic compounds that include a linker. […] Binding affinities as determined by Structure Activity Relationship Studies (SARs) of additional peptidomimetic compounds to GST-Ubr-box of Ubr 1 and Ubr2 are shown in Table 1.
(§2) The FP assay uses a tetrapeptide with a sequence arginine-isoleucine-phenylalanine-serine (RIFS) with fluorescein attached to the C-terminus as tracer that was previously shown to bind to the Ubr-boxes of Ubr1 and Ubr2 with similar binding affinity. Assays were developed in 384-well plates, which were read on a Clariostar Reader. Signal-to-background ratio (S/B) was optimized by varying concentrations of GST-Ubr-box and tracer concentrations. GST-fusion proteins were used due to its larger size than Ubr-box alone to increase the FP effect. […] The optimized condition includes receptor concentration [GST-UBR1]=2 μM, tracer concentration [tracer]=9 nM, and the highest concentration of unlabeled peptidomimetic compound competitors at 200 μM with 3× serial dilutions.
(§3) Preliminary ITC measurements confirmed the FP measurements (FIG. 4C).
A general note: Fluorescence polarisation rises when a labelled molecule tumbles more slowly, as on binding a larger partner.

Another assay deals with GST-Ubr-box of Ubr2 (Homo sapiens (Human), UniProt Q8IWV8). Briefly: Competition fluorescence polarization (FP) assay, GST-Ubr-box of Ubr2. As to conditions: read-out: UBR2 Affinity Ki FP. In kind it is binding.
Text: as §1, §2, §3

For assay [1], the system named is Ubr-mediated GFP degradation (Ubiquitin-R-GFP model Ubr substrate). The assay can be described thus: R-GFP degradation in cells (fluorescent imaging). In kind it is cell-based. As to conditions: cells expressing Ubiquitin-R-GFP. From the text: The peptidomimetic compound outcompetes the R-GFP model Ubr substrate for E3 binding, therefore preventing GFP degradation. The upper panels show fluorescent imaging of the cells and the lower panel show a bright field of the cells.

The target in another assay is Ubr-box of Ubr1 (Homo sapiens (Human), UniProt Q8IWV7). Briefly: FP titration of GST-Ubr-box into tracer, Ubr1. In kind it is binding. As to conditions: 9 nM tracer.
Text: as §2, §3

The target in another assay is Ubr-box of Ubr2 (Homo sapiens (Human), UniProt Q8IWV8). The assay can be described thus: FP titration of GST-Ubr-box into tracer, Ubr2. In kind it is binding. The note with it: 9 nM tracer.
Text: as §2, §3

Sequence of GST-Ubr-box of Ubr2 (Q8IWV8 other isoform, or with tags, fused parts or gaps): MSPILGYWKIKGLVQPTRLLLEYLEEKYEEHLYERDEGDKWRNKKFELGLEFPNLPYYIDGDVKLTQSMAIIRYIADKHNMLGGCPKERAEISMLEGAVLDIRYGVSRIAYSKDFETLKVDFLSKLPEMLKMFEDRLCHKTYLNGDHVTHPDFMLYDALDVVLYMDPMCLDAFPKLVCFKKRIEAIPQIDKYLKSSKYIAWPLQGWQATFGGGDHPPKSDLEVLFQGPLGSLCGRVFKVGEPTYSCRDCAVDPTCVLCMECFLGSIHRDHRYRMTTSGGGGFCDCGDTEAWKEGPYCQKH
Sequence of GST-Ubr-box of Ubr1 (Q8IWV7 other isoform, or with tags, fused parts or gaps): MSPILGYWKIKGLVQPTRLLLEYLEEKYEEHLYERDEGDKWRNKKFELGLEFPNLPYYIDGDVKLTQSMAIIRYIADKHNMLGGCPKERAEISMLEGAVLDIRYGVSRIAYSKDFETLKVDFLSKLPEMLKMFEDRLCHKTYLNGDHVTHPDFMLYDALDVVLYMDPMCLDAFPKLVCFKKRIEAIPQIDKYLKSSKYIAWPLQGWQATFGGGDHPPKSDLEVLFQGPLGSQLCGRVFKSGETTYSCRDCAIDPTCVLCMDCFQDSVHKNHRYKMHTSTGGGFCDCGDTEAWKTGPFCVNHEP
Sequence of Ubr-box of Ubr2 (Q8IWV8 other isoform, or with tags, fused parts or gaps): as the sequence (Q8IWV8 other isoform, or with tags, fused parts or gaps) above
Sequence of Ubr-box of Ubr1 (Q8IWV7 other isoform, or with tags, fused parts or gaps): as the sequence (Q8IWV7 other isoform, or with tags, fused parts or gaps) above

For orientation: Ki means the equilibrium dissociation constant of an inhibitor or competing ligand from its target. As to `NCC(=O)N[C@@H](Cc1ccc(O)c([N+](=O)[O-])c1)C(N)=O` [Compound 17] (H-Gly-[Tyr(3-NO2)]-NH2), the Ki on GST-Ubr-box of Ubr1 and at GST-Ubr-box of Ubr2 was > 100 µM throughout.
On to `NC(=O)[C@H](Cc1ccccc1)NC(=O)[C@@H](N)Cc1ccc(O)c([N+](=O)[O-])c1` [Compound 18] (H-[Tyr(3-NO2)]-Phe-NH2), for which the Ki on GST-Ubr-box of Ubr1 and on GST-Ubr-box of Ubr2 was > 100 µM throughout.
In the case of `CNC(=N)N(C)CCC[C@H](N)C(=O)N[C@@H](Cc1ccc(O)c([N+](=O)[O-])c1)C(=O)N[C@@H](Cc1ccccc1)C(N)=O` [Compound 11], the Ki lay in the range of 10 to 100 µM at GST-Ubr-box of Ubr1 and 1 to 10 µM at GST-Ubr-box of Ubr2.
Taken in the same sequence, the figures for `N=C(NCCC[C@H](N)C(=O)N[C@@H](Cc1ccc(O)c([N+](=O)[O-])c1)C(=O)N[C@@H](Cc1ccccc1)C(N)=O)NCC(F)(F)F` [Compound 33] were < 1 µM and < 1 µM.
The like results for `CC(C[C@H](NC(=O)[C@@H](N)CCCNC(=N)N)C(=O)N[C@@H](Cc1ccccc1)C(N)=O)C(F)(F)F` (stereo partly shown) [Compound 26] were, in that order, < 1 µM and < 1 µM.
With `CN(C)C(=N)NCCC[C@H](N)C(=O)N[C@@H](Cc1ccc(O)c(F)c1)C(=O)N[C@@H](Cc1ccccc1)C(N)=O` [Compound 28] (H-[Arg(Me2a)]-[Tyr(3-F)]-Phe-NH2), the Ki was < 1 µM at GST-Ubr-box of Ubr1 and 1 to 10 µM at GST-Ubr-box of Ubr2.
Taken in the same sequence, the figures for `CC[C@H](C)[C@H](NC(=O)[C@@H](N)Cc1nn[nH]n1)C(=O)N[C@@H](Cc1ccccc1)C(N)=O` [Compound 8] were > 100 µM and > 100 µM.
The like results for `CC[C@H](C)[C@H](NC(=O)[C@@H](N)Cc1ccc(NC(N)=O)cc1)C(=O)N[C@@H](Cc1ccccc1)C(N)=O` [Compound 5] were, in that order, > 100 µM and 10 to 100 µM.
With `CC[C@H](C)[C@H](NC(=O)[C@@H](N)CCCNC(=N)NCC(F)(F)F)C(=O)N[C@@H](Cc1ccccc1)C(N)=O` [Compound 4], the inhibition constant Ki at GST-Ubr-box of Ubr1 and on GST-Ubr-box of Ubr2 was < 1 µM in each case. Besides, the “concentration at which R-GFP degradation in cells is blocked” value in assay [1] was > 1 µM.
For `CC[C@H](C)[C@H](NC(=O)[C@@H](N)Cc1ccncc1)C(=O)N[C@@H](Cc1ccccc1)C(N)=O` [Compound 23] (H-[4Pal]-Ile-Phe-NH2), the Ki on GST-Ubr-box of Ubr1 and on GST-Ubr-box of Ubr2 was > 100 µM throughout.
With `CC[C@H](C)[C@H](NC(=O)[C@@H](N)Cc1cncn1C)C(=O)N[C@@H](Cc1ccccc1)C(N)=O` [Compound 10] (H-[His(π-Me)]-Ile-Phe-NH2), the Ki at GST-Ubr-box of Ubr1 and at GST-Ubr-box of Ubr2 was > 100 µM throughout.
`CC[C@H](C)[C@H](NC(=O)[C@@H](N)CCCN(C)C(=N)NC)C(=O)N[C@@H](Cc1ccccc1)C(N)=O` [Compound 6]: the Ki on GST-Ubr-box of Ubr1 and at GST-Ubr-box of Ubr2 was > 100 µM each time.
On to `CC[C@H](C)[C@H](NC(=O)[C@@H](N)CCC/N=C(\N)N(C)C)C(=O)N[C@@H](Cc1ccccc1)C(N)=O` [Compound 32] (H-[Arg(Me2a)]-Ile-Phe-NH2), for which the Ki at GST-Ubr-box of Ubr1 and on GST-Ubr-box of Ubr2 was 1 to 10 µM each time.
For `COc1ccc(C[C@H](NC(=O)[C@H](N)Cc2ccc(N=C(N)N)cc2)C(=O)N[C@@H](Cc2ccccc2)C(N)=O)cc1` [Compound 16] (H-[dPhe(4-guanidino)]-Tyr(Me)-Phe-NH2), the Ki on GST-Ubr-box of Ubr1 and at GST-Ubr-box of Ubr2 was < 1 µM each time.
Take “unlabeled tetrapeptide: unlabeled tetrapeptide (RIFS sequence without fluorescein tag) used as competitor [reference compound]”: the displacement of tracer result with GST-Ubr-box of Ubr1 is “Effective displacement of tracer”.
Turning to `CCC(C)[C@H](NC(=O)[C@@H](N)Cc1ccc(NC(C)=O)cc1)C(=O)N[C@@H](Cc1ccccc1)C(N)=O` (stereo partly shown) [Compound 24] (H-[Phe(4-NH2)](Ac)-[Ile(3ξ)]-Phe-NH2), the inhibition constant Ki on GST-Ubr-box of Ubr1 and at GST-Ubr-box of Ubr2 was 10 to 100 µM each time.
Consider `CN(C)C(=N)NCCC[C@H](N)C(=O)N[C@@H](Cc1ccc(O)c([N+](=O)[O-])c1)C(=O)N[C@@H](Cc1ccccc1)C(N)=O` [Compound 19] (H-[Arg(Me2a)]-[Tyr(3-NO2)]-Phe-NH2), for which the Ki on GST-Ubr-box of Ubr1 and on GST-Ubr-box of Ubr2 was < 1 µM in each case.
Consider `COc1ccc(C[C@H](NC(=O)[C@@H](N)CCCNC(=N)N(C)C)C(=O)N[C@@H](Cc2ccccc2)C(N)=O)cc1` [Compound 15] (H-[Arg(Me2a)]-Tyr(Me)-Phe-NH2), for which the Ki on GST-Ubr-box of Ubr1 and on GST-Ubr-box of Ubr2 was < 1 µM in each case.
For “tracer: tetrapeptide arginine-isoleucine-phenylalanine-serine (RIFS) with fluorescein attached to the C-terminus as tracer (RIFS-fluorescein)”, the “binding of tracer to Ubr-box of Ubr1” value in the assay with Ubr-box of Ubr1 was “can bind”. The “binding of tracer to Ubr-box of Ubr2” value with Ubr-box of Ubr2 was “can bind”.
In the case of `CC[C@H](C)[C@H](NC(=O)[C@@H](N)CCONC(=N)N)C(=O)N[C@@H](Cc1ccccc1)C(N)=O` [Compound 3], the Ki on GST-Ubr-box of Ubr1 and at GST-Ubr-box of Ubr2 was 10 to 100 µM in each case.
With `CC[C@H](C)[C@H](NC(=O)[C@@H](N)Cc1cn(C)cn1)C(=O)N[C@@H](Cc1ccccc1)C(N)=O` [Compound 13] (H-[His(τ-Me)]-Ile-Phe-NH2), the inhibition constant Ki on GST-Ubr-box of Ubr1 and at GST-Ubr-box of Ubr2 was > 100 µM throughout.
On to `CC[C@H](C)[C@H](NC(=O)[C@H](Cc1ccccc1)NC(=O)[C@@H](N)Cc1ccncc1)C(N)=O` [Compound 22] (H-[4Pal]-Phe-Ile-NH2), for which the Ki on GST-Ubr-box of Ubr1 and at GST-Ubr-box of Ubr2 was > 100 µM in each case.
As to `CN(C)C(=N)NCCC[C@H](N)C(=O)N[C@@H](Cc1cscn1)C(=O)N[C@@H](Cc1ccccc1)C(N)=O` [Compound 29], the Ki on GST-Ubr-box of Ubr1 and at GST-Ubr-box of Ubr2 was 1 to 10 µM in each case.
With `N=C(N)NCCC[C@H](N)C(=O)N[C@@H](Cc1ccc(O)c(Cl)c1)C(=O)N[C@@H](Cc1ccccc1)C(N)=O` [Compound 25], the Ki fell in the range of 1 to 10 µM on GST-Ubr-box of Ubr1 and 10 to 100 µM on GST-Ubr-box of Ubr2.
Taken in the same sequence, the figures for `COc1ccc(C[C@H](NC(=O)[C@@H](N)CCCNC(=N)NCC(F)(F)F)C(=O)N[C@@H](Cc2ccccc2)C(N)=O)cc1` [Compound 14] were < 1 µM and < 1 µM.
Taken in the same sequence, the figures for `CC[C@H](C)[C@H](NC(=O)[C@@H](N)Cc1cccs1)C(=O)N[C@@H](Cc1ccccc1)C(N)=O` [Compound 21] (H-[2Thi]-Ile-Phe-NH2) were > 100 µM and > 100 µM.
Taken in the same sequence, the figures for `CNC(=N)N(C)CCC[C@H](N)C(=O)N[C@@H](Cc1ccc(O)c(C)c1)C(=O)N[C@@H](Cc1ccccc1)C(N)=O` [Compound 7] were 10 to 100 µM and 10 to 100 µM.
On to `CCNC(=N)N(CC)CCC[C@H](N)C(=O)N[C@H](C(=O)N[C@@H](Cc1ccccc1)C(N)=O)[C@@H](C)CC` [Compound 9], for which the Ki on GST-Ubr-box of Ubr1 and at GST-Ubr-box of Ubr2 was 10 to 100 µM each time.
For `CNC(=N)N(C)CCC[C@H](N)C(=O)N[C@@H](Cc1ccc(O)c([N+](=O)[O-])c1)C(=O)N[C@@H](Cc1ccccc1)C(N)=O` [Compound 12], the Ki was 1 to 10 µM at GST-Ubr-box of Ubr1 and < 1 µM at GST-Ubr-box of Ubr2.
Taken in the same sequence, the figures for `N=C(NCCC[C@H](N)C(=O)N[C@@H](Cc1ccc(O)c(Cl)c1)C(=O)N[C@@H](Cc1ccccc1)C(N)=O)NCC(F)(F)F` [Compound 20] were < 1 µM and < 1 µM.
The like results for `CN(C)C(=N)NCCC[C@H](N)C(=O)N[C@@H](Cc1cccs1)C(=O)N[C@@H](Cc1ccccc1)C(N)=O` [Compound 30] were, in that order, < 1 µM and 1 to 10 µM.
The like results for `N=C(N)NCCC[C@H](N)C(=O)N[C@@H](Cc1ccc(O)c([N+](=O)[O-])c1)C(=O)N[C@@H](Cc1ccccc1)C(N)=O` [Compound 1] were, in that order, 1 to 10 µM and 1 to 10 µM.
`CC[C@H](C)[C@H](NC(=O)[C@@H](N)Cc1ccc(N=C(N)N)cc1)C(=O)N[C@@H](Cc1ccccc1)C(N)=O` [Compound 2] (H-[Phe(4-guanidino)]-Ile-Phe-NH2): the Ki was 1 to 10 µM on GST-Ubr-box of Ubr1 and < 1 µM at GST-Ubr-box of Ubr2.
Taken in the same sequence, the figures for `CCC(C)C(NC(=O)[C@@H](N)CCCNC(=N)N)C(=O)N[C@@H](Cc1ccccc1)C(N)=O` (stereo partly shown) [Compound 27] were 1 to 10 µM and 1 to 10 µM.
Take `CN(C)C(=N)NCCC[C@H](N)C(=O)N1CCC[C@H]1C(=O)N[C@@H](Cc1ccccc1)C(N)=O` [Compound 31] (H-[Arg(Me2a)]-Pro-Phe-NH2): the Ki on GST-Ubr-box of Ubr1 and on GST-Ubr-box of Ubr2 was > 100 µM each time.
